According to US7033829B2, “Method to inhibit cell growth using oligonucleotides” (Trustees of Boston University, priority 2000, dated 2006):
Oligonucleotides are written 5' to 3', each unit as a sugar letter and its base; * is a phosphorothioate linkage, no mark a phosphodiester; rarer units and linkages stand in square brackets, end groups in braces. Plain capitals give the bases only. d = 2'-deoxy (DNA); {P} = phosphate

Experiments:
[1] = test system: melanin in ear skin; assay: In vivo melanogenic activity on ears (Fontana Masson); set-up: species or system mice; details: 100 μM once daily in propylene glycol; 15 days
Procedure: In another experiment, mice were treated once daily with either 100 μM pTpT or SEQ ID NO: 1 containing a 5′ phosphate in propylene glycol on one ear, or vehicle alone on the other ear. After 15 days, when the ears were sectioned and stained with Fontana Masson to detect melanin compared to vehicle controls, there was a 70% increase in pigmentation in pTpT-treated ears and a 250% increase with SEQ ID NO: 1. Thus, both compounds comprising as few as 2 and as many as 9 nucleotides are effective at producing the in vitro UV-mimetic effects in vivo.

[2] = Skin penetration of fluorescently-labeled oligonucleotides (ear); assay type: in vivo, Mice; details: in propylene glycol, 4 hours
Procedure: The compounds of the present invention were tested for skin penetration and in vivo melanogenic activity. Mice were treated (on their ears) with fluorescently-labeled pTpT or SEQ ID NO: 1 (comprising a 5′ phosphate) in propylene glycol for 4 hours, then ear skin was sectioned and examined by confocal microscopy. […] Thus pTpT and SEQ ID NO: 1 comparably penetrate the skin barrier.

[3] = test system: S91 cells; assay: Cellular uptake of FAM-labeled oligonucleotides in S91 cells; assay type: in vitro ADME, mouse; details: 4 hours
Procedure: Fluorescein phosphoramidite (FAM) labeled oligonucleotides were added to cultures of S91 cells for 4 hours and the cells were then prepared for confocal microscopy. Nuclei, identified by staining with propidium iodide, appeared red and FAM-labeled oligonucleotides appeared green. Co-localization of red and green signals was assigned a yellow color by the computer. […] There was no change in the profile of oligonucleotide uptake after 6 and 24 hours.

[4] = test system: p21/Waf 1/Cip 1 gene; assay: p21 mRNA Northern blot in SCC12F cells; assay type: cell-based, human; details: for p21 mRNA level relative to diluent control: 48 hours, FIG. 13; for increase of p21/Waf 1/Cip 1 mRNA level: within 48 hours
Procedure: The induction of melanogenesis in Cloudman S91 mouse melanoma cells by a five-nucleotide oligomer CATAC (SEQ ID NO: 6) and a nine-nucleotide oligomer, GAGTATGAG (SEQ ID NO: 1) was examined. Duplicates of Cloudman S91 murine melanoma cells were incubated with either 100 μM oligo or an equal volume of diluent (H2O) for 5 days. The cells were then collected, counted, and an equal number of cells were pelleted for melanin analysis. […] Variations of this oligonucleotide were evaluated: a scrambled 9-mer (TAGGAGGAT; SEQ ID NO: 2) and two truncated versions, a 7-mer (AGTATGA; SEQ ID NO: 3) and second 5-mer (GTATG; SEQ ID NO: 4). […] The truncated versions (SEQ ID NOs: 3 and 4) were also active, inducing 640% and 670% increases, respectively.
pTpT was previously found to inhibit cell cycle progression, at least in part through activation of p53 and subsequent upregulation of the cyclin dependent kinase inhibitor p21. Cultures of the human keratinocyte line SCC12F were treated with pTpT, SEQ ID NO: 1, SEQ ID NO: 6 or diluent alone as a negative control, collected and counted 48 hours later and processed for northern blot analysis of p21 mRNA expression. […] Thus, the sequences of the present invention activate p53 and inhibit cell proliferation similar to the effect of pTpT.

[5] = test system: SCC12F cells; assay: FACS cell cycle analysis of SCC12F cells; assay type: cell-based, human; details: for cells in the S phase / S-phase arrest: 48 hours (control 26%)
Procedure: However, when increasing concentrations of the phosphorothioate 11mer-1 were also added to these cultures, fewer cells became arrested (FIGS. 21A–21G).
Exposure of keratinocytes to UVB irradiation affects the expression of genes involved in cell cycle arrest, DNA repair and cytokine production. Single-stranded oligonucleotides sharing sequence homology with the telomere 3′ overhang, when introduced into cells, mimic these UV effects. To identify other genes that may be similarly modulated, cells of keratinocyte origin (SCC12F; a human epidermal squamous cell carcinoma line provided by Dr. James Rheinwald of Harvard University) were exposed to solar simulated irradiation (SSR) (20 mJ/cm^2, measured at 285±5 nm), to an 11-base oligonucleotide (pGTTAGGGTTAG; SEQ ID NO:5) homologous to the telomere overhang (T-oligo), or to a complementary sequence as control [pCTAACCCTAAC; (SEQ ID NO:9) control oligonucleotide]. […] These are mitochondrial-transcribed genes whose encoded proteins participate in cellular respiration.
In order to determine whether these oligonucleotides similarly affect other human cell types and to investigate the role of p53, we treated a squamous cell carcinoma line (SCC12F) (Rheinwald, J. G., et al., 1983, Human carcinogenesis. pp. 86–96. Academic Press (New York)) that over-expresses a presumptively mutated p53 (Eller, M. S. and B. A. Gilchrest. 2000, Pigment Cell Res. 13: 94–97) and a p53-null osteosarcoma cell line (Saos-2) (Wang, L. H., et al., 1998, Anticancer Res 18: 321–325) with either diluent alone, 11mer-1, 11mer-2 or 11mer-3. Cultures were analyzed by FACS after 48 hours (FIGS. 33A–33H). […] Although the percentage of cells in the S-phase in 11mer-1-treated SCC12F and Saos-2 cells was virtually identical (53±6% and 52±1%, respectively), the G0/G1 and G2/M content of the two cell types were somewhat different. This may reflect differential uptake of the oligonucleotide leading to dose-dependent differences, and/or different pathways acting in these cells to control the cell cycle. No apoptotic response to the oligonucleotides was detected in either cell type within 72 hours.

[6] = test system: Apurinic Endonuclease-1 (APE-1); assay: APE-1 western blot in fibroblasts; assay type: cell-based, human; details: 100 μM pTpT; 10 μM or 60 μM SEQ ID NO:5; within 24 hours, sustained at least 48 hours
Procedure: Fibroblasts (human newborn) were maintained in 10% CS-supplemented DMEM containing 100 μM pTpT, 10 μM or 60 μM oligonucleotide pGTTAGGGTTAG (SEQ ID NO:5), or diluent as control. Total cellular proteins were harvested at different intervals after supplementation and processed for western blot analysis. Expression of APE-1, the rate-limiting enzyme in repair of 8-oxoguanine (the principal form of oxidative DNA damage) was studied. The blot was incubated with anti APE-1 antibodies (APE/Ref-1 monoclonal IgG2b, Novus Biologicals, Inc. Littleton, Colo.). Within 24 hours of supplementation with pTpT or the 11mer oligonucleotide having nucleotide sequence SEQ ID NO:5, the 37 kDa APE-1 protein was induced in samples stimulated with the oligonucleotides as compared to diluent control. The induction was sustained for at least 48 hours, when the experiment was terminated. Coomassie blue-stained residual bands on the gel confirmed uniform loading of the different lanes.

Substance	increase in pigmentation compared to vehicle controls [1] [%]	skin penetration (confocal microscopy) [2]	cellular uptake and localization (confocal microscopy, FACS) [3]	p21 mRNA level relative to diluent control [4]	increase of p21/Waf 1/Cip 1 mRNA level [4]	cells in the S phase / S-phase arrest [5]	cells in the S-phase ([5]; 40 μM, 48 hours) [%]	cells arrested in the S-phase ([5]; Example 27 (control cells <23%)) [%]	APE-1 protein [6]
pGAGTATGAG (DNA, 5' {P}, backbone not given here) [SEQ ID NO: 1]	250	brightly stained epidermis and hair follicles	intense staining that strongly localized to the nucleus	~3 fold	200–300%	–	–	–	–
11mer-1-S: phosphorothioate 11mer-1 (dG*dT*dT*dA*dG*dG*dG*dT*dT*dA*dG; further chemistry not fully specified)	–	–	–	–	–	did not induce the S-phase arrest	–	–	–
pGTTAGGGTTAG (DNA {P}-dGdTdTdAdGdGdGdTdTdAdG) [SEQ ID NO: 5]	–	–	–	–	–	Forty-three precent	53±6	> 43	induced
thymidine dinucleotide [pTpT]	70	brightly stained epidermis and hair follicles	strong green fluorescence in the cytoplasm, but only a small amount of nuclear localization	twice that of control cells	100–150%	–	–	–	induced
